Test results published in ChEMBL document CHEMBL4507324 (2021).

Legend:
Conditions in all cases: Compound concentration 100.0 nM
[1] = molecular target: Serine/threonine-protein kinase TAO1 (Homo sapiens) (UniProt Q7L7X3)
[2] = molecular target: Calcium-dependent protein kinase 1 (Plasmodium falciparum) (UniProt P62344)
[3] = molecular target: cAMP-dependent protein kinase catalytic subunit PRKX (Homo sapiens) (UniProt P51817)
[4] = molecular target: cGMP-dependent protein kinase 2 (Homo sapiens) (UniProt Q13237)
[5] = molecular target: Serine/threonine-protein kinase MARK2 (Homo sapiens) (UniProt Q7KZI7)
[6] = molecular target: Serine/threonine-protein kinase 38-like (Homo sapiens, UniProt Q9Y2H1)
[7] = molecular target: Casein kinase I isoform gamma-1 (Homo sapiens) (UniProt Q9HCP0)
[8] = molecular target: Inhibitor of nuclear factor kappa-B kinase subunit epsilon (Homo sapiens) (UniProt Q14164)
[9] = molecular target: Serine/threonine-protein kinase tousled-like 1 (Homo sapiens) (UniProt Q9UKI8)
[10] = test system: Tyrosine-protein kinase ABL1 (Homo sapiens), P00519 [Q252H]
[11] = molecular target: Serine/threonine-protein kinase PRP4 homolog (Homo sapiens) (UniProt Q13523)
[12] = molecular target: Dual specificity tyrosine-phosphorylation-regulated kinase 2 (Homo sapiens) (UniProt Q92630)
[13] = test system: Receptor-type tyrosine-protein kinase FLT3 (Homo sapiens), P36888 [UNDEFINED MUTATION]
[14] = molecular target: Dual serine/threonine and tyrosine protein kinase (Homo sapiens) (UniProt Q6XUX3)
[15] = molecular target: Ribosomal protein S6 kinase alpha-6 (Homo sapiens) (UniProt Q9UK32)
[16] = molecular target: Serine/threonine-protein kinase Chk1 (Homo sapiens) (UniProt O14757)
[17] = molecular target: Aurora kinase C (Homo sapiens) (UniProt Q9UQB9)
[18] = molecular target: Interleukin-1 receptor-associated kinase 1 (Homo sapiens) (UniProt P51617)
[19] = molecular target: Receptor-interacting serine/threonine-protein kinase 1 (Homo sapiens) (UniProt Q13546)
[20] = molecular target: Serine/threonine-protein kinase 25 (Homo sapiens) (UniProt O00506)
[21] = molecular target: Serine/threonine-protein kinase 17B (Homo sapiens) (UniProt O94768)
[22] = test system: Epidermal growth factor receptor (Homo sapiens), P00533 [UNDEFINED MUTATION]
[23] = molecular target: Tyrosine-protein kinase Fgr (Homo sapiens) (UniProt P09769)
[24] = molecular target: Calcium/calmodulin-dependent protein kinase type 1D (Homo sapiens) (UniProt Q8IU85)
[25] = molecular target: Insulin-like growth factor 1 receptor (Homo sapiens) (UniProt P08069)
[26] = molecular target: Serine/threonine-protein kinase Chk2 (Homo sapiens, UniProt O96017)
[27] = molecular target: Death-associated protein kinase 1 (Homo sapiens) (UniProt P53355)
[28] = molecular target: Phosphorylase b kinase regulatory subunit alpha, liver isoform (Homo sapiens) (UniProt P46019)
[29] = molecular target: Inhibitor of nuclear factor kappa-B kinase subunit beta (Homo sapiens) (UniProt O14920)
[30] = molecular target: TGF-beta receptor type-1 (Homo sapiens) (UniProt P36897)
[31] = molecular target: Mitogen-activated protein kinase kinase kinase 1 (Homo sapiens) (UniProt Q13233)
[32] = molecular target: Focal adhesion kinase 1 (Homo sapiens) (UniProt Q05397)
[33] = molecular target: Calcium/calmodulin-dependent protein kinase kinase 2 (Homo sapiens) (UniProt Q96RR4)
[34] = molecular target: Serine/threonine-protein kinase TNNI3K (Homo sapiens) (UniProt Q59H18)
[35] = molecular target: Rho-associated protein kinase 1 (Homo sapiens) (UniProt Q13464)
[36] = molecular target: Cyclin-dependent kinase 4 (Homo sapiens) (UniProt P11802)
[37] = molecular target: Mitotic checkpoint serine/threonine-protein kinase BUB1 (Homo sapiens) (UniProt O43683)
[38] = molecular target: Phosphatidylinositol 4-phosphate 3-kinase C2 domain-containing subunit beta (Homo sapiens) (UniProt O00750)
[39] = molecular target: Activin receptor type-2A (Homo sapiens) (UniProt P27037)
[40] = molecular target: Serine/threonine-protein kinase RIO3 (Homo sapiens) (UniProt O14730)
[41] = molecular target: Cyclin-dependent kinase-like 5 (Homo sapiens) (UniProt O76039)
[42] = molecular target: Serine/threonine-protein kinase PAK 1 (Homo sapiens) (UniProt Q13153)
[43] = molecular target: Platelet-derived growth factor receptor alpha (Homo sapiens) (UniProt P16234)
[44] = molecular target: Myosin-IIIa (Homo sapiens) (UniProt Q8NEV4)
[45] = molecular target: Serine/threonine-protein kinase 10 (Homo sapiens) (UniProt O94804)

Ribosomal protein S6 kinase alpha-6 (Homo sapiens), sequence (Q9UK32 whole entry): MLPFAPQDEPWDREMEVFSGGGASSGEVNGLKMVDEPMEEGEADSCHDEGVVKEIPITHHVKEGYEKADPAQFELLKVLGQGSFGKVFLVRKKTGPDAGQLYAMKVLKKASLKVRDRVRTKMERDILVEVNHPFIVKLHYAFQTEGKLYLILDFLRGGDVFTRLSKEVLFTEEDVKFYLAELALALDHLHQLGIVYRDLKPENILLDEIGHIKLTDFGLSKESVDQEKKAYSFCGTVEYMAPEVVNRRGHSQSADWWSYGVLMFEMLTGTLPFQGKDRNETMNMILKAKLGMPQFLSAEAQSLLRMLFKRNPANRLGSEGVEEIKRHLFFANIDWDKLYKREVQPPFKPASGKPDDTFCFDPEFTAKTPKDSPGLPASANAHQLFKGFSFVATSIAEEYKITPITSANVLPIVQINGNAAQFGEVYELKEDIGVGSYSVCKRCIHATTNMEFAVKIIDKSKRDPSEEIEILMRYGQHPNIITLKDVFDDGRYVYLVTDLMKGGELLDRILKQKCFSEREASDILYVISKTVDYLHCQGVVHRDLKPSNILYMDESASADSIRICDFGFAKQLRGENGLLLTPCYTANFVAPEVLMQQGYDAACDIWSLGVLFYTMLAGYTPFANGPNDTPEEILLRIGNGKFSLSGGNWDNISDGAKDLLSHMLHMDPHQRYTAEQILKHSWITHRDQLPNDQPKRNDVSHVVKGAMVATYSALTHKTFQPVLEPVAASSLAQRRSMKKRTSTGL
Serine/threonine-protein kinase 17B (Homo sapiens), sequence (O94768 whole entry): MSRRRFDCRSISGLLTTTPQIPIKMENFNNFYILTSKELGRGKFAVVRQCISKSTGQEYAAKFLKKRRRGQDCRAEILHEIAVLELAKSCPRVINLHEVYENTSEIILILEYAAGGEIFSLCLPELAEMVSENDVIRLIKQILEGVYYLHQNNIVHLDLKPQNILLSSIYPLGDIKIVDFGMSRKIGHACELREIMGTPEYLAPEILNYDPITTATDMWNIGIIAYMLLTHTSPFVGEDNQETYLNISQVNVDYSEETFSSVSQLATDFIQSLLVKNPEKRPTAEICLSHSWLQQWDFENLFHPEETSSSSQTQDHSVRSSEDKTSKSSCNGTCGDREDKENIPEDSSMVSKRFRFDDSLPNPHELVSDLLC
Serine/threonine-protein kinase MARK2 (Homo sapiens), sequence (Q7KZI7 whole entry): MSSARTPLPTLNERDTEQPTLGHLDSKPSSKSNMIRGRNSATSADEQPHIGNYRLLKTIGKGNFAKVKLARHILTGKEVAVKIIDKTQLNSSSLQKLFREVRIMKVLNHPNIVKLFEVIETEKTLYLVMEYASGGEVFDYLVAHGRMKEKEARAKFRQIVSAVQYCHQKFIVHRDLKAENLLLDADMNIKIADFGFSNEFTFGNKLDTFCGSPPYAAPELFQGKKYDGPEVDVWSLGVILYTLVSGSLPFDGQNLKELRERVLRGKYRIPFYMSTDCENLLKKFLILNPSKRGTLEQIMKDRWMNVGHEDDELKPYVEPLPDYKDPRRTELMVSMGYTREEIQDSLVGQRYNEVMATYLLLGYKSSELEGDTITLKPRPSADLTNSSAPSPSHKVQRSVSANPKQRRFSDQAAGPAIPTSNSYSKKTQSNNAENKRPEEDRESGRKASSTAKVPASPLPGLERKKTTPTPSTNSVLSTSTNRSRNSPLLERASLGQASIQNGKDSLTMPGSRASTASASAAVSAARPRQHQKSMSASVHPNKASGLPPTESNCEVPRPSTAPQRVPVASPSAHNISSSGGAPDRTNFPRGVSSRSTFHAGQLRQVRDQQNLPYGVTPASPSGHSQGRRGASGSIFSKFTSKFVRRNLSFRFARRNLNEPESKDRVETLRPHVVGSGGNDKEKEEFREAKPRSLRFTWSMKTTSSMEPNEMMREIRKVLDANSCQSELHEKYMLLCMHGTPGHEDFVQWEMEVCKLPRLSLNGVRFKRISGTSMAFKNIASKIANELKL
Dual serine/threonine and tyrosine protein kinase (Homo sapiens), sequence (Q6XUX3 whole entry): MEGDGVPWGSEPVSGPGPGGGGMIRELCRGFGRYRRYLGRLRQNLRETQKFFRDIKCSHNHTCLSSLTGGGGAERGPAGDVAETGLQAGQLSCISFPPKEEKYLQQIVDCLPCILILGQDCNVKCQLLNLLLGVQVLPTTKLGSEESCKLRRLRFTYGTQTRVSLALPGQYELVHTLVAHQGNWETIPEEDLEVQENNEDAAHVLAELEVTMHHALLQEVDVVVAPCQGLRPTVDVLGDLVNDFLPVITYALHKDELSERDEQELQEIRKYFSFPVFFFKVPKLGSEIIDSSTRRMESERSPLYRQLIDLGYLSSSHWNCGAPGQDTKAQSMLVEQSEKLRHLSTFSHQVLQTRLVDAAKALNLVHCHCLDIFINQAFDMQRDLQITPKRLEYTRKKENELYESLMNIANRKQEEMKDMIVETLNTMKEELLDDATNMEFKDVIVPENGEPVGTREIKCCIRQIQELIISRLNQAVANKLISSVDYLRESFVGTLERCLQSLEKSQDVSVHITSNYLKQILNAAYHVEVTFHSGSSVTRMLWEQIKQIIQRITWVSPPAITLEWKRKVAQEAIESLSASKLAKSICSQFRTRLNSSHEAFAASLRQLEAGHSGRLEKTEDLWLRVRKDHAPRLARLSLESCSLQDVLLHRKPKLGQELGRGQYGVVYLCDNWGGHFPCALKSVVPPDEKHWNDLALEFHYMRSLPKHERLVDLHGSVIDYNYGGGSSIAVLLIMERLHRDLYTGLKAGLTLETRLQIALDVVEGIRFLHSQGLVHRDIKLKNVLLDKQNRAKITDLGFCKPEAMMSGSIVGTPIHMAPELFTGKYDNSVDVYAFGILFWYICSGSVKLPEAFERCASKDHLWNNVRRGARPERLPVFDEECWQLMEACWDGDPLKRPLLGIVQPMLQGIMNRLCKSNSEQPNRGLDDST
Serine/threonine-protein kinase PAK 1 (Homo sapiens), sequence (Q13153 whole entry): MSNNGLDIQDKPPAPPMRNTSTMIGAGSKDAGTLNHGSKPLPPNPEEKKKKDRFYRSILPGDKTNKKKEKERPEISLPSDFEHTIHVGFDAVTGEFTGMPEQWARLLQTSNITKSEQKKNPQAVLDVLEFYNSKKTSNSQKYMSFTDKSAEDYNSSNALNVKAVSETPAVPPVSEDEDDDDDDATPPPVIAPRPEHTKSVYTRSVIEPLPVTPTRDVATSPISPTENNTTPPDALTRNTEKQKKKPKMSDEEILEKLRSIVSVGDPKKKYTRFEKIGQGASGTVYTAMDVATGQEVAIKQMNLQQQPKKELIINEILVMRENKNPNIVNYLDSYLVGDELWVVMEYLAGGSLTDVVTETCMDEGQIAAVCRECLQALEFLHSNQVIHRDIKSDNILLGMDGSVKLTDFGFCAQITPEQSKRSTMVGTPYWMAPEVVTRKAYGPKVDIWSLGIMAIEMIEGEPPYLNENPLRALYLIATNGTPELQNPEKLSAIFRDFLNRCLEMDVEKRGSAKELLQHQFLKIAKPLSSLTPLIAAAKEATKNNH
TGF-beta receptor type-1 (Homo sapiens), sequence (P36897 whole entry): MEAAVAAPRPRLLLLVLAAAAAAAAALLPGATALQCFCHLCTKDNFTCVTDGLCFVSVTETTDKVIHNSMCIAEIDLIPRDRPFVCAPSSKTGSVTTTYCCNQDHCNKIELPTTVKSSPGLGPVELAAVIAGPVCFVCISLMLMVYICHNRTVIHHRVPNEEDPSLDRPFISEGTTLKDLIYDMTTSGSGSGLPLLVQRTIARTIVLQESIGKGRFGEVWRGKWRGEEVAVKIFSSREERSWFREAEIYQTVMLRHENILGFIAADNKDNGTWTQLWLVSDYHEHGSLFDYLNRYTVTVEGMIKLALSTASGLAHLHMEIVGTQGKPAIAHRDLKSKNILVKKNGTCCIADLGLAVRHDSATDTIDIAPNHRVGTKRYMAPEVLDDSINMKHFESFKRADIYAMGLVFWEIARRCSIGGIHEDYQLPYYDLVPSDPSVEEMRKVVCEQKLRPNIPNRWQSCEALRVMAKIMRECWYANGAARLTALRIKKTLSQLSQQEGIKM
Serine/threonine-protein kinase TAO1 (Homo sapiens), sequence (Q7L7X3 whole entry): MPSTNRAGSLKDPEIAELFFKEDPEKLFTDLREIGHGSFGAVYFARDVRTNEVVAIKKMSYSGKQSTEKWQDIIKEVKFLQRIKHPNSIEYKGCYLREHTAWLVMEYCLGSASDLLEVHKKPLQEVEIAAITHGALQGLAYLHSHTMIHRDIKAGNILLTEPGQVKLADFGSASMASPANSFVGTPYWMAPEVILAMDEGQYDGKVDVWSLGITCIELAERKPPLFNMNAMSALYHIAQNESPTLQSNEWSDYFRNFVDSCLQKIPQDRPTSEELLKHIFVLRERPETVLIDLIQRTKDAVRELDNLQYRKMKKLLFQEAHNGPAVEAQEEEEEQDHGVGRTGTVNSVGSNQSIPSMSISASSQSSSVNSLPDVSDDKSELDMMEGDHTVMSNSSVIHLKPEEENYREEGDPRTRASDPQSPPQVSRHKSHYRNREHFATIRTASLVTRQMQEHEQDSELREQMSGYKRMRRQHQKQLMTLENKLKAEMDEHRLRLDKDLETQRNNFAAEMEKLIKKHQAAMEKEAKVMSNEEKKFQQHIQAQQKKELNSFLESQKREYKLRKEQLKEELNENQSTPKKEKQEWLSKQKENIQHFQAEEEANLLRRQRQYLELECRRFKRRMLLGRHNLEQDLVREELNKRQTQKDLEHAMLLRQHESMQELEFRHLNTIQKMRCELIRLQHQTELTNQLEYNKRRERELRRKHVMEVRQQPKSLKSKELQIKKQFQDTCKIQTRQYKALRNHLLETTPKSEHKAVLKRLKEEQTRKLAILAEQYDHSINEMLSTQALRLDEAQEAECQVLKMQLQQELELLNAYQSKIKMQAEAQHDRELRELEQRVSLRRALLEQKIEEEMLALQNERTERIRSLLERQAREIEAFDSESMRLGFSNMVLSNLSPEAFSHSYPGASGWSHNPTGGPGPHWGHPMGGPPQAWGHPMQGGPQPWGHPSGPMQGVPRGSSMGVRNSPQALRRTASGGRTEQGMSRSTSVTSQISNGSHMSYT

CS(=O)(=O)N1CCCC(NC(=O)[C@H](CCC2CCCCC2)NC(=O)c2ccc(CNc3ncnc4c3nnn4-c3ccccc3)cc2)C1 (stereo not given in full) [SR-301]
residual activity [1]: 100% | residual activity [2]: 100% | residual activity [3]: 100% | residual activity [4]: 79% | residual activity [5]: 100% | residual activity [6]: 24% | residual activity [7]: 100% | residual activity [8]: 73% | residual activity [9]: 94% | residual activity [10]: 89% | residual activity [11]: 60% | residual activity [12]: 100% | residual activity [13]: 100% | residual activity [14]: 80% | residual activity [15]: 100% | residual activity [16]: 100% | residual activity [17]: 78% | residual activity [18]: 100% | residual activity [19]: 94% | residual activity [20]: 90% | residual activity [21]: 100% | residual activity [22]: 93% | residual activity [23]: 88% | residual activity [24]: 97% | residual activity [25]: 100% | residual activity [26]: 100% | residual activity [27]: 92% | residual activity [28]: 100% | residual activity [29]: 100% | residual activity [30]: 100% | residual activity [31]: 81% | residual activity [32]: 100% | residual activity [33]: 78% | residual activity [34]: 63% | residual activity [35]: 93% | residual activity [36]: 100% | residual activity [37]: 100% | residual activity [38]: 95% | residual activity [39]: 68% | residual activity [40]: 88% | residual activity [41]: 100% | residual activity [42]: 100% | residual activity [43]: 91% | residual activity [44]: 97% | residual activity [45]: 100%

CS(=O)(=O)N1CCCC(NC(=O)[C@H](CCC2CCCCC2)NC(=O)c2ccc(CNC(=O)c3cnc4ccccn34)cc2)C1 (stereo not given in full) [SR-302]
residual activity [1]: 88% | residual activity [2]: 78% | residual activity [3]: 65% | residual activity [4]: 82% | residual activity [5]: 100% | residual activity [6]: 40% | residual activity [7]: 100% | residual activity [8]: 100% | residual activity [9]: 72% | residual activity [10]: 37% | residual activity [11]: 74% | residual activity [12]: 100% | residual activity [13]: 100% | residual activity [14]: 100% | residual activity [15]: 97% | residual activity [16]: 100% | residual activity [17]: 98% | residual activity [18]: 100% | residual activity [19]: 88% | residual activity [20]: 100% | residual activity [21]: 83% | residual activity [22]: 90% | residual activity [23]: 87% | residual activity [24]: 88% | residual activity [25]: 73% | residual activity [26]: 37% | residual activity [27]: 88% | residual activity [28]: 100% | residual activity [29]: 100% | residual activity [30]: 84% | residual activity [31]: 100% | residual activity [32]: 92% | residual activity [33]: 88% | residual activity [34]: 89% | residual activity [35]: 100% | residual activity [36]: 100% | residual activity [37]: 100% | residual activity [38]: 100% | residual activity [39]: 100% | residual activity [40]: 97% | residual activity [41]: 100% | residual activity [42]: 82% | residual activity [43]: 99% | residual activity [44]: 99% | residual activity [45]: 100%
